Measured values published in US11964953B2, “Substituted aminothiazoles as DGKzeta inhibitors for immune activation” (Bayer Aktiengesellschaft, priority 2020, dated 2024).

biological target: human DGKζ (Homo sapiens (Human), UniProt Q13574); assay: Human DGKζ kinase activity inhibition assay (ADP-Glo); assay type: biochemical; details: in vitro human DGKζ kinase activity inhibition assay; read-out: IC50
Outline: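 Enzyme was C-terminally FLAG-tagged full-length recombinant human DGKζ from baculovirus-infected insect cells. Substrate preparation used octyl-β-D-glucopyranoside in 50 mM MOPS pH 7.4 with sonication; ADP generated was quantified by ADP-Glo luminescence as activity measure.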

Chain of human DGKζ (Q13574 other isoform, or with tags, fused parts or gaps): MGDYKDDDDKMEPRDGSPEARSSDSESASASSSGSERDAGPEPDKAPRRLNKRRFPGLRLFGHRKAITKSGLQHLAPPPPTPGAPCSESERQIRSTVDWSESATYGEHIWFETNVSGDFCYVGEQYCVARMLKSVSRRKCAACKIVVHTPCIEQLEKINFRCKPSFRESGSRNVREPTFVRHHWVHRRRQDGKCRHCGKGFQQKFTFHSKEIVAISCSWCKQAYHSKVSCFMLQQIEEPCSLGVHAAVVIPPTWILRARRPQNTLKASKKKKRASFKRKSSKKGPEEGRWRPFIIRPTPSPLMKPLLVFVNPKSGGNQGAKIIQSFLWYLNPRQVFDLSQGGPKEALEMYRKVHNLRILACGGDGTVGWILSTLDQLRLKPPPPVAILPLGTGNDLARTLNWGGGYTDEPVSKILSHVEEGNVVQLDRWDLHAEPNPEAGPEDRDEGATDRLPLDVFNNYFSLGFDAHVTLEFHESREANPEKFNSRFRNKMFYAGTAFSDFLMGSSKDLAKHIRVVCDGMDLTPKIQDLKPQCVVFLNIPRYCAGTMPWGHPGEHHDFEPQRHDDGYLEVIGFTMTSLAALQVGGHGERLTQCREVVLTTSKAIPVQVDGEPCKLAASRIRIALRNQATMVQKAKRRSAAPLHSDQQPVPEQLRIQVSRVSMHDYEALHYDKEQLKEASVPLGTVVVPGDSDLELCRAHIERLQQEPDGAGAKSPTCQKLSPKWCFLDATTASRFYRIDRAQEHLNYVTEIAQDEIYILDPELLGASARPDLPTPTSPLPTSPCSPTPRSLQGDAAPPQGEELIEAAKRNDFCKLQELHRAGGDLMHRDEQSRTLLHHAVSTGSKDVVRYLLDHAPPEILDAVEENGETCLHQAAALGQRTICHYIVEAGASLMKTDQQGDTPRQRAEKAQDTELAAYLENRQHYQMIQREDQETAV

Row | SMILES | IC50
1 | CC(C(N)=O)N(c1ccc(OC(F)(F)F)c(Cl)c1)c1nc(N)c(C(=O)c2ccncc2)s1 (racemic) [Example 225, rac-2-[N-[4-amino-5-(pyridine-4-carbonyl)thiazol-2-yl]-3-chloro-4-(trifluoromethoxy)anilino]propanamide] | 252 nM
2 | CC(C(N)=O)N(c1ccc(OC(F)(F)F)c(Cl)c1)c1nc(N)c(C(=O)c2ccc(OC(F)F)nc2)s1 (racemic) [Example 226, rac-2-[N-[4-amino-5-[6-(difluoromethoxy)pyridine-3-carbonyl]thiazol-2-yl]-3-chloro-4-(trifluoromethoxy)anilino]propanamide] | 87 nM
3 | COc1ccc(N(c2nc(N)c(C(=O)c3ccccc3)s2)C(C)C(N)=O)cn1 (racemic) [Example 227, rac-2-[(4-amino-5-benzoyl-thiazol-2-yl)-(6-methoxy-3-pyridyl)amino]propanamide] | 393 nM
4 | CC(C(N)=O)N(c1ccc(OC(F)(F)F)nc1)c1nc(N)c(C(=O)c2ccccc2)s1 (racemic) [Example 228, rac-2-[(4-amino-5-benzoyl-thiazol-2-yl)-[6-(trifluoromethoxy)-3-pyridyl]amino]propanamide] | 218 nM
5 | CC(C(N)=O)N(c1ccc(OC(F)F)nc1)c1nc(N)c(C(=O)c2ccccc2)s1 (racemic) [Example 229, rac-2-[(4-amino-5-benzoyl-thiazol-2-yl)-[6-(difluoromethoxy)-3-pyridyl]amino]propanamide] | 193 nM
6 | CC(C(N)=O)N(c1ccc(C(F)(F)F)nc1)c1nc(N)c(C(=O)c2ccccc2)s1 (racemic) [Example 230, rac-2-[(4-amino-5-benzoyl-thiazol-2-yl)-[6-(trifluoromethyl)-3-pyridyl]amino]propanamide] | 199 nM
7 | CC(C(N)=O)N(c1ccc(C(F)F)nc1)c1nc(N)c(C(=O)c2ccccc2)s1 (racemic) [Example 231, rac-2-[(4-amino-5-benzoyl-thiazol-2-yl)-[6-(difluoromethyl)-3-pyridyl]amino]propanamide] | 662 nM
8 | CC(C(N)=O)N(c1ccc(Cl)nc1)c1nc(N)c(C(=O)c2ccccc2)s1 (racemic) [Example 232, rac-2-[(4-amino-5-benzoyl-thiazol-2-yl)-(6-chloro-3-pyridyl)amino]propanamide] | 112 nM
9 | CC(C(N)=O)N(c1ccc(F)nc1)c1nc(N)c(C(=O)c2ccccc2)s1 (racemic) [Example 233, rac-2-[(4-amino-5-benzoyl-thiazol-2-yl)-(6-fluoro-3-pyridyl)amino]propanamide] | 267 nM
10 | Cc1ccc(N(c2nc(N)c(C(=O)c3ccccc3)s2)C(C)C(N)=O)cn1 (racemic) [Example 234, rac-2-[(4-amino-5-benzoyl-thiazol-2-yl)-(6-methyl-3-pyridyl)amino]propanamide] | 1640 nM
11 | CC(C(N)=O)N(c1ccc(F)c(OC(F)(F)F)c1)c1nc(N)c(C(=O)c2ccccc2)s1 (racemic) [Example 235, rac-2-[N-(4-amino-5-benzoyl-thiazol-2-yl)-4-fluoro-3-(trifluoromethoxy)anilino]propanamide] | 542 nM
12 | CC(C(N)=O)N(c1ccc(Cl)c(OC(F)(F)F)c1)c1nc(N)c(C(=O)c2ccccc2)s1 (racemic) [Example 236, rac-2-[N-(4-amino-5-benzoyl-thiazol-2-yl)-4-chloro-3-(trifluoromethoxy)anilino]propanamide] | 730 nM
13 | CC(C(N)=O)N(c1ccc(F)c(OC(F)F)c1)c1nc(N)c(C(=O)c2ccccc2)s1 (racemic) [Example 237, rac-2-[N-(4-amino-5-benzoyl-thiazol-2-yl)-3-(difluoromethoxy)-4-fluoro-anilino]propanamide] | 749 nM
14 | CC(C(N)=O)N(c1ccc(Cl)c(OC(F)F)c1)c1nc(N)c(C(=O)c2ccccc2)s1 (racemic) [Example 238, rac-2-[N-(4-amino-5-benzoyl-thiazol-2-yl)-4-chloro-3-(difluoromethoxy)anilino]propanamide] | 667 nM
15 | CC(C(N)=O)N(c1nc(N)c(C(=O)c2ccccc2)s1)c1ccc(OC(F)(F)F)cc1F (racemic) [Example 239, rac-2-[N-(4-amino-5-benzoyl-thiazol-2-yl)-2-fluoro-4-(trifluoromethoxy)anilino]propanamide] | 236 nM
16 | CC(C(N)=O)N(c1nc(N)c(C(=O)c2ccccc2)s1)c1ccc(OC(F)(F)F)cc1Cl (racemic) [Example 240, rac-2-[N-(4-amino-5-benzoyl-thiazol-2-yl)-2-chloro-4-(trifluoromethoxy)anilino]propanamide] | 1330 nM
17 | CC(C(N)=O)N(c1nc(N)c(C(=O)c2ccccc2)s1)c1ccc(OC(F)F)cc1F (racemic) [Example 241, rac-2-[N-(4-amino-5-benzoyl-thiazol-2-yl)-4-(difluoromethoxy)-2-fluoro-anilino]propanamide] | 382 nM
18 | CC(C(N)=O)N(c1nc(N)c(C(=O)c2ccccc2)s1)c1ccc(OC(F)F)cc1Cl (racemic) [Example 242, rac-2-[N-(4-amino-5-benzoyl-thiazol-2-yl)-2-chloro-4-(difluoromethoxy)anilino]propanamide] | 2030 nM
19 | CC(C(N)=O)N(c1ccc(C(F)F)cc1)c1nc(N)c(C(=O)c2ccncc2)s1 (racemic) [Example 246, rac-2-[N-[4-amino-5-(pyridine-4-carbonyl)thiazol-2-yl]-4-(difluoromethyl)anilino]propanamide] | 662 nM
20 | COc1ccc(C(=O)c2sc(N(c3ccc(OC(F)(F)F)nc3)C(C)C(N)=O)nc2N)cc1 (racemic) [Example 248, rac-2-[[4-amino-5-(4-methoxybenzoyl)thiazol-2-yl]-[6-(trifluoromethoxy)-3-pyridyl]amino]propanamide] | 136 nM
21 | CC(C(N)=O)N(c1ccc(OC(F)(F)F)nc1)c1nc(N)c(C(=O)c2ccc(Cl)cc2)s1 (racemic) [Example 249, rac-2-[[4-amino-5-(4-chlorobenzoyl)thiazol-2-yl]-[6-(trifluoromethoxy)-3-pyridyl]amino]propanamide] | 120 nM
22 | CC(C(N)=O)N(c1ccc(OC(F)(F)F)nc1)c1nc(N)c(C(=O)c2ccc(OC(F)F)nc2)s1 (racemic) [Example 251, rac-2-[[4-amino-5-[6-(difluoromethoxy)pyridine-3-carbonyl]thiazol-2-yl]-[6-(trifluoromethoxy)-3-pyridyl]amino]propanamide] | 87 nM
23 | COc1ccc(C(=O)c2sc(N(c3ccc(OC(F)F)nc3)C(C)C(N)=O)nc2N)cc1 (racemic) [Example 252, rac-2-[[4-amino-5-(4-methoxybenzoyl)thiazol-2-yl]-[6-(difluoromethoxy)-3-pyridyl]amino]propanamide] | 106 nM
24 | CC(C(N)=O)N(c1ccc(OC(F)F)nc1)c1nc(N)c(C(=O)c2ccc(OC(F)F)nc2)s1 (racemic) [Example 255, rac-2-[[4-amino-5-[6-(difluoromethoxy)pyridine-3-carbonyl]thiazol-2-yl]-[6-(difluoromethoxy)-3-pyridyl]amino]propanamide] | 76 nM

Compounds with a lower IC50, results first:

Row | IC50 | SMILES
25 | 59 nM | CC(C(N)=O)N(c1ccc(OC(F)F)nc1)c1nc(N)c(C(=O)c2ccc(Cl)cc2)s1 (racemic) [Example 253, rac-2-[[4-amino-5-(4-chlorobenzoyl)thiazol-2-yl]-[6-(difluoromethoxy)-3-pyridyl]amino]propanamide]
26 | 51 nM | COc1ccc(C(=O)c2sc(N(c3ccc(C(F)F)cc3)C(C)C(N)=O)nc2N)cc1 (racemic) [Example 243, rac-2-[N-[4-amino-5-(4-methoxybenzoyl)thiazol-2-yl]-4-(difluoromethyl)anilino]propanamide]
27 | 45 nM | CC(C(N)=O)N(c1ccc(OC(F)(F)F)c(Cl)c1)c1nc(N)c(C(=O)c2ccc(OC(F)F)cc2)s1 (racemic) [Example 224, rac-2-[N-[4-amino-5-[4-(difluoromethoxy)benzoyl]thiazol-2-yl]-3-chloro-4-(trifluoromethoxy)anilino]propanamide]
28 | 40 nM | CC(C(N)=O)N(c1ccc(C(F)F)cc1)c1nc(N)c(C(=O)c2ccc(OC(F)F)nc2)s1 (racemic) [Example 247, rac-2-[N-[4-amino-5-[6-(difluoromethoxy)pyridine-3-carbonyl]thiazol-2-yl]-4-(difluoromethyl)anilino]propanamide]
29 | 36 nM | CC(C(N)=O)N(c1ccc(OC(F)(F)F)nc1)c1nc(N)c(C(=O)c2ccc(OC(F)F)cc2)s1 (racemic) [Example 250, rac-2-[[4-amino-5-[4-(difluoromethoxy)benzoyl]thiazol-2-yl]-[6-(trifluoromethoxy)-3-pyridyl]amino]propanamide]
30 | 32 nM | CC(C(N)=O)N(c1ccc(OC(F)F)nc1)c1nc(N)c(C(=O)c2ccc(OC(F)F)cc2)s1 (racemic) [Example 254, rac-2-[[4-amino-5-[4-(difluoromethoxy)benzoyl]thiazol-2-yl]-[6-(difluoromethoxy)-3-pyridyl]amino]propanamide]
31 | 30 nM | CC(C(N)=O)N(c1ccc(C(F)F)cc1)c1nc(N)c(C(=O)c2ccc(Cl)cc2)s1 (racemic) [Example 244, rac-2-[N-[4-amino-5-(4-chlorobenzoyl)thiazol-2-yl]-4-(difiuoromethyl)anilino]propanamide]
32 | 22 nM | CC(C(N)=O)N(c1ccc(C(F)F)cc1)c1nc(N)c(C(=O)c2ccc(OC(F)F)cc2)s1 (racemic) [Example 245, rac-2-[N-[4-amino-5-[4-(difluoromethoxy)benzoyl]thiazol-2-yl]-4-(difluoromethyl)anilino]propanamide]
33 | 19 nM | CCOC(=O)c1ccc(C(=O)c2sc(N(c3ccc(Cl)c(F)c3)C(C)C(N)=O)nc2N)cc1 (racemic) [Example 258, rac-Ethyl 4-[4-amino-2-(N-(2-amino-1-methyl-2-oxo-ethyl)-4-chloro-3-fluoro-anilino)thiazole-5-carbonyl]benzoate]
34 | 9 nM | CC(C(N)=O)N(c1ccc(F)cc1)c1nc(N)c(C(=O)c2ccc(NC(=O)OCc3ccccc3)nc2)s1 (racemic) [Example 256, rac-benzyl N-[5-[4-amino-2-(N-(2-amino-1-methyl-2-oxo-ethyl)-4-fluoro-anilino)thiazole-5-carbonyl]-2-pyridyl]carbamate]
